The source of these data is ChEMBL document CHEMBL1250451, “Mechanistic insights into a Ca2+-dependent family of alpha-mannosidases in a human gut symbiont” (Nat Chem Biol, 2010).

Common to all, as to assay type: protein assay
The target of experiment [1] is T1, Alpha-1,2-mannosidase (BT_3990) (Bacteroides thetaiotaomicron) (UniProt Q8A0N1).
T1 sequence (whole entry): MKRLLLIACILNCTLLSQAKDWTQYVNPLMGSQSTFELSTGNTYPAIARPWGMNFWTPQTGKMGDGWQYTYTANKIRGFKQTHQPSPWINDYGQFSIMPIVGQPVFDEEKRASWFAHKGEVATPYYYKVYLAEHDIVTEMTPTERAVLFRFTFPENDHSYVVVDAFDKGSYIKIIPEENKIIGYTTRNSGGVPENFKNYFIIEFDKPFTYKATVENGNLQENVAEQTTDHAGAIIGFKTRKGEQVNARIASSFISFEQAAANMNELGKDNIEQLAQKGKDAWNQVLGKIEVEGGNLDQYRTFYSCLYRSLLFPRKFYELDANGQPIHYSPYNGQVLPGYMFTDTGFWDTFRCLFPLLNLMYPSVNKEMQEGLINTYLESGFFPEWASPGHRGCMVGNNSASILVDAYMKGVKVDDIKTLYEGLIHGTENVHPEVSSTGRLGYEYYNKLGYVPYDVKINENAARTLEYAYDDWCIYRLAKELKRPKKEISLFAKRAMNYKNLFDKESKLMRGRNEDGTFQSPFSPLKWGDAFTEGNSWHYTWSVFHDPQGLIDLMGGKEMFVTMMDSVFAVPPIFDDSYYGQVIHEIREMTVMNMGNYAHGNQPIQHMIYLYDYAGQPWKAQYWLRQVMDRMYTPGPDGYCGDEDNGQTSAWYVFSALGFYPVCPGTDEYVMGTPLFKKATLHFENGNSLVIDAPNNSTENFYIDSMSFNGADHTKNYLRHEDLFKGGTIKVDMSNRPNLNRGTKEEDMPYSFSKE
Briefly: Activity of Bacteroides thetaiotaomicron GH92 alpha-mannosidase 3990 assessed as recovery of enzyme activity at 1 mM in presence of 7 mM Ba(2+) ions and in presence of 5 mM EDTA in 100 mM pH 7 MOPS buffer relative to enzyme activity in presence of calcium.

Experiment [2] has as its target T2, Alpha-1,2-mannosidase (BT_2199) (Bacteroides thetaiotaomicron) (UniProt Q8A5N9).
T2 sequence (whole entry): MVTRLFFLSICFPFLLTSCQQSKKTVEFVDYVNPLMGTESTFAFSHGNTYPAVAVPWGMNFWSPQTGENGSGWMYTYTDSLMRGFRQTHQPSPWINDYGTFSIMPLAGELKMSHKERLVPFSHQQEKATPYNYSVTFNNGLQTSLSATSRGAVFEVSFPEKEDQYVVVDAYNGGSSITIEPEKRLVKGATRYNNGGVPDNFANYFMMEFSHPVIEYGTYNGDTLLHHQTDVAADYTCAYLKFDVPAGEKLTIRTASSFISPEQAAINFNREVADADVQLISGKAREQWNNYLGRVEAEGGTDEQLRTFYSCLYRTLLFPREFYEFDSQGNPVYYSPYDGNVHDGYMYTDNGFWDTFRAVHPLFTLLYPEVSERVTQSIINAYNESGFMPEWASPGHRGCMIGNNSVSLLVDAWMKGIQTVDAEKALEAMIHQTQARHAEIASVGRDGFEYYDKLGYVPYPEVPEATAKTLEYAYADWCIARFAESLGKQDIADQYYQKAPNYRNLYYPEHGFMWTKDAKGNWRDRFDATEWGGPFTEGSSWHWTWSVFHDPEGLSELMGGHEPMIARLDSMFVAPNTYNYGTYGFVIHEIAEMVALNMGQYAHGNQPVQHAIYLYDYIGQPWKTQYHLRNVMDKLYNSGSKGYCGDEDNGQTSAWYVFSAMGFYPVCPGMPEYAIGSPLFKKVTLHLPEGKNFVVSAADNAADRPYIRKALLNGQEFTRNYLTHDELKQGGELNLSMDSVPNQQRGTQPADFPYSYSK
Briefly: Activity of Bacteroides thetaiotaomicron GH92 alpha-mannosidase 2199 assessed as recovery of enzyme activity at 1 mM in presence of 7 mM Ti(3+) ions and in presence of 5 mM EGTA in 100 mM pH 7 MOPS buffer relative to enzyme activity in presence of calcium.

The target in experiment [3] is T1, Alpha-1,2-mannosidase (BT_3990) (Bacteroides thetaiotaomicron). The experiment in a line: Activity of Bacteroides thetaiotaomicron GH92 alpha-mannosidase 3990 assessed as recovery of enzyme activity at 1 mM in absence of metal and in presence of 5 mM EDTA in 100 mM pH 7 MOPS buffer relative to enzyme activity in presence of calcium.
Experiment [4] concerns the target T2, Alpha-1,2-mannosidase (BT_2199) (Bacteroides thetaiotaomicron). Briefly: Activity of Bacteroides thetaiotaomicron GH92 alpha-mannosidase 2199 assessed as recovery of enzyme activity at 1 mM in presence of 7 mM Zn(2+) ions and in presence of 5 mM EGTA in 100 mM pH 7 MOPS buffer relative to enzyme activity in presence of calcium.
For experiment [5] the target is unchanged. The experiment in a line: Activity of Bacteroides thetaiotaomicron GH92 alpha-mannosidase 2199 assessed as recovery of enzyme activity at 1 mM in presence of 7 mM Mg(2+) ions and in presence of 5 mM EDTA in 100 mM pH 7 MOPS buffer relative to enzyme activity in presence of calcium.
The target is the same in experiment [6]. Briefly: Activity of Bacteroides thetaiotaomicron GH92 alpha-mannosidase 2199 assessed as recovery of enzyme activity at 1 mM in presence of 7 mM Zn(2+) ions and in presence of 5 mM EDTA in 100 mM pH 7 MOPS buffer relative to enzyme activity in presence of calcium.
For experiment [7] the target is unchanged. The experiment in a line: Activity of Bacteroides thetaiotaomicron GH92 alpha-mannosidase 2199 assessed as recovery of enzyme activity at 1 mM in absence of metal and in presence of 5 mM EDTA in 100 mM pH 7 MOPS buffer relative to enzyme activity in presence of calcium.
Experiment [8] addresses T1, Alpha-1,2-mannosidase (BT_3990) (Bacteroides thetaiotaomicron). The experiment in a line: Activity of Bacteroides thetaiotaomicron GH92 alpha-mannosidase 3990 assessed as recovery of enzyme activity at 1 mM in presence of 7 mM Sc(3+) ions and in presence of 5 mM EGTA in 100 mM pH 7 MOPS buffer relative to enzyme activity in presence of calcium.
For experiment [9], the target named is T2, Alpha-1,2-mannosidase (BT_2199) (Bacteroides thetaiotaomicron). Briefly: Activity of Bacteroides thetaiotaomicron GH92 alpha-mannosidase 2199 assessed as recovery of enzyme activity at 1 mM in presence of 7 mM Ba(2+) ions and in presence of 5 mM EGTA in 100 mM pH 7 MOPS buffer relative to enzyme activity in presence of calcium.
Experiment [10] has as its target T1, Alpha-1,2-mannosidase (BT_3990) (Bacteroides thetaiotaomicron). The experiment in a line: Activity of Bacteroides thetaiotaomicron GH92 alpha-mannosidase 3990 assessed as recovery of enzyme activity at 1 mM in presence of 7 mM Sr(2+) ions and in presence of 5 mM EGTA in 100 mM pH 7 MOPS buffer relative to enzyme activity in presence of calcium.
Experiment [11] shares this target. Briefly: Activity of Bacteroides thetaiotaomicron GH92 alpha-mannosidase 3990 assessed as recovery of enzyme activity at 1 mM in presence of 7 mM Sc(3+) ions and in presence of 5 mM EDTA in 100 mM pH 7 MOPS buffer relative to enzyme activity in presence of calcium.
For experiment [12] the target is unchanged. Briefly: Activity of Bacteroides thetaiotaomicron GH92 alpha-mannosidase 3990 assessed as recovery of enzyme activity at 1 mM in presence of 7 mM Be(2+) ions and in presence of 5 mM EGTA in 100 mM pH 7 MOPS buffer relative to enzyme activity in presence of calcium.

Take `O=[N+]([O-])c1ccc(O[C@H]2O[C@H](CO)[C@@H](O)[C@H](O)[C@@H]2O)cc1`: the Activity in [1], in [2], in [3], in experiment [4], in experiment [5] and in experiment [6] was 0% throughout. For the same compound, the Activity was determined as 0% in experiment [7]; 0% in experiment [8]; 0% in experiment [9]; 12% in experiment [10]; 0% in [11]; 0% in experiment [12].
